Measurements reported in publication PMC10120310 (Cell Insight, 2022).

Columns and labels:
[1] = test system: oseltamivir-resistant strain (H1N1, H274Y); format: cell-based, H1N1 influenza virus (H274Y)
[2] = test system: oseltamivir-resistant strain (H1N1, H274Y); format: cell-based, H1N1 influenza virus (H274Y); remark: listed apart in the source

With `CCOC(=O)C1=C[C@@H](OC(CC)CC)[C@H](NC(C)=O)[C@@H](N)C1` [OSP, oseltamivir phosphate] as the molecule, how does the “viral NP mRNA level of the resistant strain” value [1] read?
The value was “no antiviral activity”.

What about the “viral NP protein level of the resistant strain” value [2] of the same molecule?
The value was “no antiviral activity”.
